Results: paper PMC12040169 (PLOS Biology, 2025)

Experiment: in vitro
Details: human, hela cells, % viability

| Compound | viability at 28.5 h, 10 µM |
| --- | --- |
| CCC(CC)C(=O)N1C[C@H]2CCc3nnc(-c4ccccc4)n3[C@H]2C1 [CBK283439] | 86.7% |
| NC(=O)C1(N2CCCCC2)CCN(CC(=O)Nc2ccccc2Sc2ccccc2)CC1 [CBK268488] | 94.7% |
| O=C(Cn1cnc2ccccc2c1=O)Oc1cccc(NC2=NS(=O)(=O)c3ccccc32)c1 [CBK264975] | 83.6% |
| O=C(Cn1cc(C(=O)NC2CCCC2)ccc1=O)NCC1(c2ccccc2)CCCC1 [CBK286248] | 94.7% |
| Cc1n[nH]c(-c2ccccc2NS(=O)(=O)c2cnn(C(C)C)c2)n1 [CBK306377] | 84.1% |
| CCc1nc(CN2CCN(C(=O)Nc3ccccc3C)CC2)cs1 [CBK305817] | 87.5% |
| CC(=O)c1c(C)n(O)c2ccc(Cl)cc2c1=O [CBK217746] | 107% |
| O=C(Nc1ccc(N2CCNCC2)nc1)c1cccs1 [CBK029430T] | 111% |
| CCCC/C=C/c1cn2ccnc2c(Nc2cccc(OCC(=O)N(C)C)c2)n1 [CBK066185] | 108% |
| Cc1ccc(OC(C)C(=O)Nc2ccccc2C(=O)N2CCN(C)CC2)cc1 (centres unmarked) [CBK269802] | 88.6% |
| CCCC/C=C/c1nccnc1NCc1ccncc1 [CBK037500] | 108% |
| Cc1nn(Cc2cccc3ccccc23)c(C)c1NC(=O)c1ccncc1 [CBK269990] | 93.4% |
| COc1ccc(S(=O)(=O)N2CCCCC2)cc1NC(=O)c1ccc(-c2nnn[nH]2)cc1 [CBK297128] | 93% |
| O=C(N1CCCC1)N1CCN(c2cncc(-c3ccc(O)cc3)n2)CC1 [CBK126947T] | 93.5% |
| Cc1nccn1CCCn1cncc1-c1ccc2c(c1)CCCN2C [CBK282962] | 93.1% |
| CC1CCCN(C(=O)N(C)C)C1 (centres unmarked) [CBK023175] | 118% |
| CN(C)c1ccc(-c2noc([C@@H]3CCCN3C)n2)cn1 [CBK288902] | 104% |
| CCn1cc(C(=O)N2CCCC2c2nc3ccccc3[nH]2)cn1 (centres unmarked) [CBK283776] | 109% |
| COc1cccc(C(=O)Nc2cc3c(cc2C(O)c2ccccc2Cl)OCCO3)c1 (centres unmarked) [CBK268004] | 99.3% |
| CNC(=O)NC(=O)C1CCN(CCc2cccs2)CC1 [CBK034960] | 106% |
| COc1cc(C)nc(NC(=O)COc2ccc(Cl)cc2C)n1 [CBK266681] | 106% |
| CCCN1C[C@H](NC(=O)CC)[C@@H](c2ccc(OC)cc2)C1 [CBK282134] | 82.3% |
| Cc1cc2c(s1)c1cnn(Cc3ccccn3)c(=O)c1n2C [CBK284227] | 65.4% |

| Compound | viability at 28.5 h, 10 µM |
| --- | --- |
| Cn1ccc(CNCc2c(Br)cc(F)c(F)c2N2CCCCC2)n1 [CBK304763] | 105% |
| O=S(=O)(Nc1nnc(C(F)(F)F)s1)c1ccc(F)cc1 [CBK026663] | 91.4% |
| Clc1cnc2nc(NCC3CCCCC3)sc2c1 [CBK067087] | 87.5% |
| O=C(NC(c1ccccc1)c1ccccc1)C1(c2ccccc2)CCCC1 [CBK149536] | 96.8% |
| Cc1ccc2nsnc2c1NC(=O)COc1ccccc1F [CBK269420] | 105% |
| CC(NC(=O)c1ccc(=O)n(C)n1)c1ccc2c(c1)CCCC2 (centres unmarked) [CBK281416] | 91.9% |
| COc1ccc(C(=O)C2CCN(Cc3cccc4cccnc34)CC2)cc1 [CBK295192] | 85.3% |
| CN(CC(=O)NC1CCCCC1)S(=O)(=O)c1ccc(F)cc1 [CBK091832] | 98.6% |
| Oc1ccc(-n2cc(-c3ccc(F)cc3)nn2)cc1 [CBK113126] | 82% |
| COc1cc(/C=N/NC(=O)CCn2c3ccc(Cl)cc3c3cc(Cl)ccc32)ccc1O [CBK262351] | 112% |
| CC1CCN(C(=O)c2cccc(Cn3cc(Br)cn3)c2)CC1 [CBK058482] | 91.8% |
| Cc1c(C(=O)N2CCC(F)(CO)C2)nnn1-c1ccc2ncccc2c1 (centres unmarked) [CBK304483] | 101% |
| N#Cc1sc2nc(C34CC5CC(CC(C5)C3)C4)ccc2c1N [CBK267455] | 93.8% |
| Cn1ccc(CN2CCOC(c3nc(C(C)(C)C)n[nH]3)C2)cc1=O (centres unmarked) [CBK304495] | 84.5% |
| Cn1ncc2c(SCc3cc4c(cc3Br)OCCO4)ncnc21 [CBK297732] | 104% |
| O=C(Cc1cccc2ccccc12)NC(=S)Nc1cccc(C(=O)O)c1 [CBK267471] | 90.7% |
| O=C(NCC(c1ccco1)N1CCCC1)N1CCc2ccccc2C1 (centres unmarked) [CBK304392] | 98.8% |
| CC(=O)N1CCC2(C/C=C/C[C@H]3CN(C(=O)CC4CCOCC4)CC[C@H]3NC(=O)CNC2=O)CC1 [CBK292109] | 98.8% |
| CC1CCCN(CC(O)COCc2ccc3c(c2)OCO3)C1 (centres unmarked) [CBK262830C] | 105% |
| O=C(c1cccs1)n1nc(NCc2ccccc2)nc1NCc1ccccc1 [CBK269149] | 107% |
| CC(C)C(=O)N1CC2(CCN(CCS(=O)(=O)c3ccccc3)CC2)c2ccccc21 [CBK126726] | 95.4% |
| COc1cc(CN2CCC(C(=O)NC(c3ccc(Cl)cc3)c3ccsc3)CC2)cc(OC)c1 (centres unmarked) [CBK147962] | 95.3% |
| Cc1ccc2cc(CN(Cc3cccs3)C(=O)NCc3ccccc3)c(=O)[nH]c2c1C [CBK068496] | 91.2% |

| Compound | viability at 28.5 h, 10 µM |
| --- | --- |
| Cc1cc(C)cc(OCc2nnc(SCC(=O)Nc3cc(C(F)(F)F)ccc3Cl)o2)c1 [CBK267890] | 94.6% |
| FC(F)(F)Oc1ccc(-c2cncc(N3CCN(c4ccncc4)CC3)n2)cc1 [CBK059230C] | 88.9% |
| O=C1NC/C=C/CC2(CCN(C(=O)c3cccnn3)CC2)C(=O)NCCOc2ccccc21 [CBK292095] | 108% |
| COc1cccc(CN(Cc2ccco2)Cc2[nH]cnc2C)c1 [CBK282495] | 81.4% |
| CC(=O)N1C[C@H](c2cccc(C)c2)[C@H]2CN(C3CCCC3)CC[C@H]21 [CBK283369] | 88.7% |
| COc1cc(/C=C/C(=O)NCc2ccccn2)cc(OC)c1OC [CBK264752] | 91.5% |
| c1coc(-c2nc3cnccn3c2NC2CCCCC2)c1 [CBK283498] | 93.6% |
| O=C(O)c1cnc(Cl)c(Br)c1 [CBK026874] | 83.7% |
| CCc1ccc(CC)c(S(=O)(=O)NC(CC(=O)O)c2ccccc2)c1 (centres unmarked) [CBK266208] | 102% |
| N#Cc1cccc(CN2C[C@H](O)C[C@H]2c2nc(Cc3ccccc3)no2)c1 [CBK288842] | 87.5% |
| COC(=O)c1sccc1S(=O)(=O)N1CCN(c2ncnc3scc(C)c23)CC1 [CBK023600] | 94.2% |
| Cn1nnc2cc(NCC3(CNC(=O)OC(C)(C)C)CC3)ccc21 [CBK304777] | 89.1% |
| O=S(=O)(c1ccccc1)c1ccccc1C(F)(F)F [CBK085887] | 104% |
| CC(C)(C)c1cc(N2C(=O)C(O)=C(C(=O)c3ccc(Cl)cc3)C2c2cccc([N+](=O)[O-])c2)no1 (centres unmarked) [CBK263470] | 92.8% |
| COc1cc(Nc2nc(-c3cccc(NC(C)=O)c3)cn3ccnc23)cc(OC)c1OC [CBK038093] | 99.7% |
| CC(C)c1ccsc1C(=O)N1CCC2(C1)NC(=O)NC2=O (centres unmarked) [CBK305188] | 87.1% |
| CCCS(=O)(=O)n1ccn(-c2cccc(C(F)(F)F)c2)c1=O [CBK106585] | 88.3% |
| O=C(O)CCc1nc2[nH]c(C(F)F)cc(=O)n2n1 [CBK286880] | 98.6% |
| Cc1ccc(Cc2nc(-c3cccnc3)no2)cc1 [CBK288141] | 94.3% |
| CCn1cc(CN2CCCCCC2c2cc(C)on2)c(C)n1 (centres unmarked) [CBK282140] | 80.7% |
| Cc1cc(OCC(O)CN2CCN(CCO)CC2)cc(C)c1Cl (centres unmarked) [CBK278248C] | 92.7% |
| CCc1cc(=O)[nH]c(-c2ccc(N3CC(C(N)=O)CCC3C)nc2)n1 (centres unmarked) [CBK306448] | 93.1% |
| CCc1nc2c(OCCOc3ccccc3)cccn2c1N(C)C(=O)COc1ccccc1 [CBK147355] | 95.2% |

| Compound | viability at 28.5 h, 10 µM |
| --- | --- |
| Cc1cc(Cl)cc(Cl)c1S(=O)(=O)Nc1cccc(C(=O)O)c1 [CBK155682] | 93% |
| CCc1nnc(SCC(=O)Nc2cc(OC)ccc2OC)[nH]1 [CBK270167] | 85.1% |
| c1ccc(Cc2nn3c(COc4ccccc4)nnc3s2)cc1 [CBK267163] | 88% |
| COc1ccc(S(=O)(=O)N(C)CC(=O)N2CCN(Cc3ccccc3)CC2)cc1C [CBK268221] | 99.6% |
| O=S1(=O)CCN(Cc2ccc3c(c2)OCO3)CC1 [CBK074780] | 93.9% |
| CC(C)N(Cc1cccnc1)C(=O)Cn1c(C2CC2)nc2ccccc21 [CBK306156] | 104% |
| Cc1sc2nc(C(C)N3CCN(Cc4ccco4)CC3)[nH]c(=O)c2c1C (centres unmarked) [CBK306066] | 93.7% |
| O=C(O)c1cccc2c1C(=O)C(CC1CCCO1)N2 (centres unmarked) [CBK287140] | 90.6% |
| CNC(C)Cc1ccccc1Sc1ccccc1 (centres unmarked) [CBK027167G] | 98% |
| CCCCOc1ccc(OC(=O)COCCOCCN2C(=O)c3ccccc3C2=O)cc1 [CBK155584] | 92.6% |
| CCCCN(C(C)=O)c1c(CC)nc2ccc(C(=O)NCCCn3ccnc3)cn12 [CBK145759] | 96.1% |
| Cc1ccc(CN(CC(=O)N2CCCCC2)S(=O)(=O)c2ccc(C)cc2)cc1 [CBK264646] | 91.6% |
| COc1ccc(CN2CCN(c3ccccn3)CC2)cc1OCc1ccccc1 [CBK261889] | 84.9% |
| Cc1ccc(C2CCCN2C(=O)c2ccc(=O)n(CC(=O)N(C)c3ccccc3)c2)cc1C (centres unmarked) [CBK285653] | 107% |
| Cc1ccc(-c2nsc(SCC(=O)c3ccc(Cl)cc3)n2)cc1 [CBK113177] | 92.1% |
| Cc1cccn2c(CN3CC(O)C3)c(C(=O)N3CCOCC3)nc12 [CBK306857] | 104% |
| COCCNC(=O)c1ccc(-c2ccccc2OC)nc1NCC1CC1 [CBK106246] | 103% |
| CN(C)C(C(=O)NCC1(C)COC1)c1ccc(Cl)cc1 (centres unmarked) [CBK281753] | 102% |
| COCCN(Cc1ccncc1)C(=O)c1cnc2ccnn2c1C [CBK306965] | 92.3% |
| O=C(NC1CCCCC1)N1C[C@@H]2C[C@H](C1)c1ccc(-c3cccnc3)c(=O)n1C2 [CBK289183] | 93.6% |
